One may read the IC50 as the midpoint of a concentration-inhibition curve. Lower therefore signals higher potency.

The values that follow come from patent US10005769B2, “2,3-dihydrobenzofuran-5YL compounds as DYRK kinase inhibitors” (4SC DISCOVERY GMBH, priority 2013, dated 2018).

One assay deals with DYRK1B (Homo sapiens (Human), UniProt Q9Y463). Briefly: DYRK1B Kinase Assay (33P ATP, DYRKtide substrate, Reaction Biology Corp.). It is filed as biochemical. The conditions noted are these: 0.3 nM DYRK1B, 20 μM DYRKtide, 10 μM ATP, 25° C., 120 min. The procedure:
The assay was carried out by Reaction Biology Corp., […], Pa., USA according to specifications by Reaction Biology Corp., as detailed herein below and further described in Anastassiadis et al., Nature Biotechnology, 29 (2011) 1039-1045. The substrate DYRKtide (synthetic peptide RRRFRPASPLRGPPK) was dissolved in freshly prepared Base Reaction Buffer (20 mM Hepes (pH 7.5), 10 mM MgCl2, 1 mM EGTA, 0.02% Brij35, 0.02 mg/ml BSA, 0.1 mM Na3VO4, 2 mM DTT, 1% DMSO) at a concentration of 20 μM. DYRK1B was added to the substrate solution in a concentration of 0.3 nM and gently mixed. Dilution series of the compounds according to the present invention in DMSO were prepared. Each dilution was added to a batch of the above reaction mix, followed 20 min later by addition of a mixture of ATP and ^33P ATP (specific activity 0.01 μCi/μl final) to a final concentration of 10 μM. Reactions were carried out at 25° C. for 120 min, followed by spotting the reactions onto P81 ion exchange filter paper. Unbound phosphate was removed by extensive washing of the filters in 0.75% phosphoric acid. […] IC50 values and curve fits were obtained using Prism (Graph Pad Software). DYRK1B used in the above assays are further described in the below table: [table] Exemplary compound dilution series, final concentrations of compound in the assay vessel; the individual concentrations and the range of concentrations covered by the dilution series may differ for each compound, as long as enough data points are obtained to determine the compound's IC50: DYRK 1[…].

For assay [1], the system named is Hedgehog signaling pathway (Gli Reporter - NIH3T3 cell line). Kind of assay: Hedgehog Reporter Assay (Gli-Reporter, luciferase, mSHH stimulated). The assay is classed as cell-based, murine. The conditions noted are these: Mus musculus; Gli Reporter NIH3T3 cells, 1 μg/ml mSHH, 24 h. The procedure:
In order to investigate the potency of test compounds to inhibit the Hedgehog signaling pathway, a Gli-Reporter assay was performed. The “Gli Reporter-NIH3T3” cell line contains the firefly luciferase gene under the control of Gli responsive elements stably integrated into murine NIH3T3 cells (cells purchased from AMS Biotechnology ltd., 184 Milton Park, Abingdon OX14 4SE, U.K.). The luciferase expression correlates with activation of the hedgehog signaling pathway. This cell line is validated for its response to stimulation with murine Sonic Hedgehog and to treatment with inhibitors of the hedgehog signaling pathway. A multiplexed viability assay was used to discriminate inhibition on the pathway activity from cell toxicity. Growth Medium: DMEM (Dulbecco's Modified Eagle Medium); 10% Fetal Calf Serum; 1% Penicillin/Streptomycin; 500 μg/ml Geneticin (G418 Stock 50 mg/ml). Assay Medium: Opti-MEM® Reduced Serum Medium; 0.5% Calf Serum; 1% non-essential amino acids; 1 mM Na-pyruvate; 10 mM HEPES; 1% Penicillin/Streptomycin. 25,000 cells per well were seeded into a white 96 well plate in 100 μl growth medium and incubated over night at 37° C. and 5% CO2. After removing the supernatant the test compounds and controls were added in different concentrations in a final volume of 45 μl and incubated for 1 h at 37° C. and 5% CO2. For the stimulation of the Hedgehog pathway 5 μl of 10 μg/ml concentrated murine SHH (or mSHH; murine sonic hedgehog protein) was added to the cells. A final concentration of 1 μg/ml mSHH and 0.1% DMSO was reached per well. After incubation for 24 h at 37° C. the cells were investigated for viability and reporter activity. Viability: For the determination of the viability of the treated cells the CellTiter-FluorTM Kit from Promega comprising the fluorogenic, cell-permeant peptide substrate ([…]-aminofluorocoumarin GF-AFC was used. Roughly, only proteases of viable cells are able to cleave the GF-AFC. By this cleavage the fluorescent AFC is set free and can be detected in a fluorescence reader. For this assay 10 μl of GF-AFC substrate (CellTiter-FluorTM, Promega #G6082) was diluted in 2 ml assay buffer from the CellTiter-FluorTM Kit and 10 μl of this dilution was added per well to the cells and incubated for 30 min at 37° C. The fluorescence was measured with an excitation of 380-400 nm and an emission of 505 nm. Reporter activity: The firefly luciferase reporter activity was detected with the ONE-GloTM Luciferase Assay System from Promega. For this assay 50 μl ONE-Glo luciferase reagent (Promega #E6120, contains cell lysis buffer and luciferin) was added to each well and incubated at room temperature for 5 min. Luminescence was detected in a plate reader and served as a measure for reporter activity.
For orientation: Reporter assays use an easily measured gene product as a stand-in for the process of interest.

Sequence of DYRK1B (Q9Y463 whole entry): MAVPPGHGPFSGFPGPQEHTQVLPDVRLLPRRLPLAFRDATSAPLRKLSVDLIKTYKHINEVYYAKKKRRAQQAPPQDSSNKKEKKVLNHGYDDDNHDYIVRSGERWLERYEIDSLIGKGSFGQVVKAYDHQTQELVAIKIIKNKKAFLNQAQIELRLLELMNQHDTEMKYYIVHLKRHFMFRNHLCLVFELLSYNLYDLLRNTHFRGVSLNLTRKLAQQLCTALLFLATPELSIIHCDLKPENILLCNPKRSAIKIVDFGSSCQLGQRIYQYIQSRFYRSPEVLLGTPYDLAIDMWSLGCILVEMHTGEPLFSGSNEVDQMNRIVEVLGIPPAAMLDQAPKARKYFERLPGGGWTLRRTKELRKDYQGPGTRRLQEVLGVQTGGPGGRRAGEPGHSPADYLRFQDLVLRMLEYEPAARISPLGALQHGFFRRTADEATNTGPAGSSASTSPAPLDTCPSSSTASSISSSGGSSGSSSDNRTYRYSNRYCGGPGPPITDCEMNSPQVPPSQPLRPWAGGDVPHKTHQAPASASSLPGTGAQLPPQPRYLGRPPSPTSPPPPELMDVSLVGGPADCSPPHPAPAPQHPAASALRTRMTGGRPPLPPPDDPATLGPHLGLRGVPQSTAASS

For the compound `N#Cc1ccc2[nH]c(NC(=O)c3csc(-c4ccc5c(c4)CCO5)n3)nc2c1` [Compound 1, N-(5-Cyano-1H-benzo[d]imidazol-2-yl)-2-(2,3-dihydrobenzofuran-5-yl)thiazole-4-carboxamide], the values for the IC50 (on DYRK1B; in assay [1]) were 1.38 nM and 1000 to 3000 nM, respectively.
In the same order, the values of `O=C(Nc1nc2cc(Cl)c(F)cc2[nH]1)c1csc(-c2ccc3c(c2)CCO3)n1` [Compound 2, N-(5-Chloro-6-fluoro-1H-benzo[d]imidazol-2-yl)-2-(2,3-dihydrobenzofuran-5-yl)thiazole-4-carboxamide] are 48.2 nM and 1000 to 3000 nM.
Taken in the same sequence, the figures for `CS(=O)(=O)c1ccc2[nH]c(NC(=O)c3csc(-c4ccc5c(c4)CCO5)n3)nc2c1` [Compound 3, 2-(2,3-Dihydrobenzofuran-5-yl)-N-(5-(methylsulfonyl)-1H-benzo[d]imidazol-2-yl)thiazole-4-carboxamide] were 1.49 nM and < 1000 nM.
In the same order, the values of `COc1ccc2[nH]c(NC(=O)c3csc(-c4ccc5c(c4)CCO5)n3)nc2c1` [Compound 4, 2-(2,3-Dihydrobenzofuran-5-yl)-N-(5-methoxy-1H-benzo[d]imidazol-2-yl)thiazole-4-carboxamide] are 13.9 nM and 3000 to 10000 nM.
For the compound `O=C(Nc1nc2cc(Cl)ccc2[nH]1)c1csc(-c2ccc3c(c2)CCO3)n1` [Compound 6, N-(5-Chloro-1H-benzo[d]imidazol-2-yl)-2-(2,3-dihydrobenzofuran-5-yl)thiazole-4-carboxamide], the figures for the IC50 (against DYRK1B; in assay [1]) were 1.9 nM and 1000 to 3000 nM, respectively.
Take `CN(C)C(=O)c1ccc2[nH]c(NC(=O)c3csc(-c4ccc5c(c4)CCO5)n3)nc2c1` [Compound 7, 2-(2,3-Dihydrobenzofuran-5-yl)-N-(5-(dimethylcarbamoyl)-1H-benzo[d]imidazol-2-yl)thiazole-4-carboxamide]: the half-maximal inhibitory concentration (IC50) on DYRK1B is 1.74 nM; in assay [1], < 1000 nM.
Consider `O=C(Nc1nc2cc(C(=O)N3CCN(CC4CCCO4)CC3)ccc2[nH]1)c1csc(-c2ccc3c(c2)CCO3)n1` (stereo not drawn) [Compound 8, 2-(2,3-Dihydrobenzofuran-5-yl)-N-(5-(4-((tetrahydrofuran-2-yl)methyl)piperazine-1-carbonyl)-1H-benzo[d]imidazol-2-yl)thiazole-4-carboxamide], for which the IC50 against DYRK1B was 3.11 nM; in assay [1] it was < 1000 nM.
As for `CCOC(=O)c1ccc2[nH]c(NC(=O)c3csc(-c4ccc5c(c4)CCO5)n3)nc2c1` [Compound 9, Ethyl 2-(2-(2,3-dihydrobenzofuran-5-yl)thiazole-4-carboxamido)-1H-benzo[d]imidazole-5-carboxylate], the IC50 against DYRK1B is 3.63 nM; in assay [1], < 1000 nM.
As to `COc1nc(NC(=O)c2csc(-c3ccc4c(c3)CCO4)n2)ns1` [Compound 64, 2-(2,3-Dihydro-1-benzofuran-5-yl)-N-(5-methoxy-1,2,4-thiadiazol-3-yl)-1,3-thiazole-4-carboxamide], half-maximal inhibition on DYRK1B (IC50) required 48.3 nM. That is a double-digit nanomolar value.
Still for that read-out and setting: as for `O=C(Nc1nccs1)c1csc(-c2ccc3c(c2)CCO3)n1` [Compound 65, 2-(2,3-Dihydro-1-benzofuran-5-yl)-N-(1,3-thiazol-2-yl)-1,3-thiazole-4-carboxamide], the figure is 48.7 nM; as for `Cc1cc(NC(=O)c2csc(-c3ccc4c(c3)CCO4)n2)n[nH]1` [Compound 66, 2-(2,3-Dihydro-1-benzofuran-5-yl)-N-(5-methyl-1H-pyrazol-3-yl)-1,3-thiazole-4-carboxamide], 50.5 nM.
Same read-out and setting: as for `O=C(Nc1nnc(Br)s1)c1csc(-c2ccc3c(c2)CCO3)n1` [Compound 67, N-(5-Bromo-1,3,4-thiadiazol-2-yl)-2-(2,3-dihydro-1-benzofuran-5-yl)-1,3-thiazole-4-carboxamide], the figure is 65.9 nM; as for `O=C(Nc1nc(-c2cccc(F)c2)n[nH]1)c1csc(-c2ccc3c(c2)CCO3)n1` [Compound 68, 2-(2,3-Dihydro-1-benzofuran-5-yl)-N-[3-(3-fluorophenyl)-1H-1,2,4-triazol-5-yl]-1,3-thiazole-4-carboxamide], 67.1 nM.
Same read-out and setting: as for `Cc1nsc(NC(=O)c2csc(-c3ccc4c(c3)CCO4)n2)n1` [Compound 69, 2-(2,3-Dihydro-1-benzofuran-5-yl)-N-(3-methyl-1,2,4-thiadiazol-5-yl)-1,3-thiazole-4-carboxamide], the figure is 72.6 nM.
On DYRK1B, `Nc1nc(NC(=O)c2csc(-c3ccc4c(c3)CCO4)n2)ns1` [Compound 70, N-(5-Amino-1,2,4-thiadiazol-3-yl)-2-(2,3-dihydro-1-benzofuran-5-yl)-1,3-thiazole-4-carboxamide] returned an IC50 of 73.4 nM.
Still for that read-out and setting: as for `O=C(Nc1nncs1)c1csc(-c2ccc3c(c2)CCO3)n1` [Compound 71, 2-(2,3-Dihydro-1-benzofuran-5-yl)-N-(1,3,4-thiadiazol-2-yl)-1,3-thiazole-4-carboxamide], the figure is 76.6 nM.
The same measure, in the same setting: as for `Cc1csc(NC(=O)c2csc(-c3ccc4c(c3)CCO4)n2)n1` [Compound 72, 2-(2,3-Dihydro-1-benzofuran-5-yl)-N-(4-methyl-1,3-thiazol-2-yl)-1,3-thiazole-4-carboxamide], the figure is 111 nM.
The same measure, in the same setting: as for `O=C(Nc1ncns1)c1csc(-c2ccc3c(c2)CCO3)n1` [Compound 73, 2-(2,3-Dihydro-1-benzofuran-5-yl)-N-(1,2,4-thiadiazol-5-yl)-1,3-thiazole-4-carboxamide], the figure is 114 nM; as for `Cc1nc(NC(=O)c2csc(-c3ccc4c(c3)CCO4)n2)sc1C` [Compound 74, 2-(2,3-Dihydro-1-benzofuran-5-yl)-N-(dimethyl-1,3-thiazol-2-yl)-1,3-thiazole-4-carboxamide], 125 nM.
The compound `O=C(Nc1nc2ccccc2s1)c1csc(-c2ccc3c(c2)CCO3)n1` [Compound 75, N-(1,3-Benzothiazol-2-yl)-2-(2,3-dihydro-1-benzofuran-5-yl)-1,3-thiazole-4-carboxamide] registered an IC50 against DYRK1B of 135 nM.
`CC(=O)c1csc(NC(=O)c2csc(-c3ccc4c(c3)CCO4)n2)n1` [Compound 76, N-(4-Acetyl-1,3-thiazol-2-yl)-2-(2,3-dihydro-1-benzofuran-5-yl)-1,3-thiazole-4-carboxamide] had an IC50 against DYRK1B of 185 nM.
With `CSc1nc(NC(=O)c2csc(-c3ccc4c(c3)CCO4)n2)ns1` [Compound 77, 2-(2,3-Dihydro-1-benzofuran-5-yl)-N-[5-(methylsulfanyl)-1,2,4-thiadiazol-3-yl]-1,3-thiazole-4-carboxamide], half-maximal inhibition against DYRK1B (IC50) was put at 420 nM.
On to `CCOC(=O)c1csc(NC(=O)c2csc(-c3ccc4c(c3)CCO4)n2)n1` [Compound 78, Ethyl 2-[2-(2,3-dihydro-1-benzofuran-5-yl)-1,3-thiazole-4-amido]-1,3-thiazole-4-carboxylate], for which the IC50 against DYRK1B stood at 410 nM.
`O=C(Nc1ncco1)c1csc(-c2ccc3c(c2)CCO3)n1` [Compound 79, 2-(2,3-Dihydro-1-benzofuran-5-yl)-N-(1,3-oxazol-2-yl)-1,3-thiazole-4-carboxamide]: at DYRK1B, half-maximal inhibition (IC50) was put at 766 nM.
In turn, “Ethyl 5-(2-(2,3-dihydrobenzofuran-5-yl)thiazole-4-carboxamido)-4H-1,2,4-triazole-3-carboxylate [Compound 20]” displayed an IC50 against DYRK1B of 109 nM.
